Source: PMC12037037 (Proceedings of the National Academy of Sciences of the …, 2025)

Assay: ADME assays (Eurofins, ChemPartner)
Assay type: in vitro ADME
Settings: overall statement
Method: (1 picture or pasted object on this page, not shown here)
Comparison Between WT and S242A5.46 psychLight Variants. Activity in WT and S242A5.46 mutant forms of PsychLight was quantified by deriving ligand activity ratios (log(Emax/EC50)). […]
and (+)-JRT were fit to a log(agonist) vs. response (three parameters) curve. The Emax/EC50 analysis was performed as previously described in detail by others (16):
Response = Basal + E!"# − Basal where Emax and Basal represent the top and bottom asymptotes of the curve fit, respectively; EC50 represents the concentration that gives a response halfway between Emax and Basal; and Log[A] is the logarithm of the agonist concentration. Then, ligand activity ratios, log(Emax/EC50) were calculated for each test ligand and statistical comparisons made between each other and between genotypes using a two-way ANOVA and significant interaction effects followed by a Šídák's multiple comparisons test.
ADME and hERG Inhbition Assays. […]
Briefly, 96 well plates were coated with poly-D-lysine and approximately 15,000 cells/well. […] Images were analyzed using the Simple Neurite Tracer and Sholl analysis plug-ins for ImageJ Fiji (version 1.51N). […] All images were taken and analyzed by an experimenter blinded to treatment conditions.
Spinogenesis Assays Using Cultured Rat Cortical Neurons. […] Images were analyzed using ImageJ Fiji (version 1.51N). […]

CCN(CC)C(=O)[C@@H]1C=C2c3cccc4ccn(c34)C[C@H]2N(C)C1 [(+)-JRT]
ADME properties: excellent
